For series [1], the target named is recombinant full-length BoNT/A light chain (rALC) (Clostridium botulinum, UniProt P0DPI0). Nature of the series: biochemical. As to conditions: read-out: % Inhibition Against rALC.
The target of series [2] is recombinant full-length BoNT/B light chain (rBLC) (Clostridium botulinum, UniProt P10844). Nature of the series: biochemical. Conditions: for inhibition at 20 µM: read-out: % Inhibition Against rBLC.
Series [3] deals with BoNT/A-mediated cleavage of intracellular SNAP-25 in N2a cells. The series is classed as cell-based, murine. As to conditions: 10 μM.
Series [4] has as its system BoNT/A-induced neuromuscular block in mouse phrenic nerve hemidiaphragm.
The test system of another series is neuroblastoma N2a cells. Conditions: for concentration well-tolerated by the cells / concentration toxic to N2a cells: mouse.
The target in a further series is BoNT/A (Clostridium botulinum, UniProt P0DPI0). Description: biochemical. As to conditions: for inhibition at 5 µM: read-out: % Inhibition against BoNT/A (5 μM).

Several values for one entry are separate records, joined by “and”; a condition that tells them apart may be missing. Equal entries are not always repeated. Where two headings read alike, the source gives them in different places. Marks after values point to notes of the source that are not given here. Bounds are passed on as bounds.

Usually IC50 stands for the concentration that inhibits the measured activity by half.

Sequence of BoNT/A (P0DPI0 1-448 limits assumed): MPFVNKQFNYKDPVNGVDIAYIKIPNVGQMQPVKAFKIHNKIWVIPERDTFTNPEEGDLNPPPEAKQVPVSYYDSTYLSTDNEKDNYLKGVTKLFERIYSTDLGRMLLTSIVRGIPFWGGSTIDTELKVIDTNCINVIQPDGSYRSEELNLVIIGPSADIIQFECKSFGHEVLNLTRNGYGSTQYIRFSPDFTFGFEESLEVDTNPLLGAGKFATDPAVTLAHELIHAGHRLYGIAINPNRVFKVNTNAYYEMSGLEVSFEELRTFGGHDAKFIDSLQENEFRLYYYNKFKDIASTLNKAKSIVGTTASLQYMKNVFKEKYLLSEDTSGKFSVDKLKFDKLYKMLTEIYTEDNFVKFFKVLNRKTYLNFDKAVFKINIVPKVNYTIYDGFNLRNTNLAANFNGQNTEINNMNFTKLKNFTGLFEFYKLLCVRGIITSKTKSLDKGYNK
Sequence of recombinant full-length BoNT/B light chain (rBLC) (P10844 2-441 limits assumed): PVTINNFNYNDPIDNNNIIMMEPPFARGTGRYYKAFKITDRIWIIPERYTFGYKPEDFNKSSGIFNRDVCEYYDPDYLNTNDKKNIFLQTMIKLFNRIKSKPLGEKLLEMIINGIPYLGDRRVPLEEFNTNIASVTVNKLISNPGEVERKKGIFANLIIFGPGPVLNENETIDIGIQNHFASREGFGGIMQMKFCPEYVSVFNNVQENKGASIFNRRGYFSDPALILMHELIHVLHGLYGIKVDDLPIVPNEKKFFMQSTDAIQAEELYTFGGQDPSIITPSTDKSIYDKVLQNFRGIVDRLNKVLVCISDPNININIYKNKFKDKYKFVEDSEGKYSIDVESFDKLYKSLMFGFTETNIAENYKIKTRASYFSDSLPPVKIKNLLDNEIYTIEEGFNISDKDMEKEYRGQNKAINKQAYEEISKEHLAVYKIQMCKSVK
Sequence of recombinant full-length BoNT/A light chain (rALC) (P0DPI0 2-448 limits assumed): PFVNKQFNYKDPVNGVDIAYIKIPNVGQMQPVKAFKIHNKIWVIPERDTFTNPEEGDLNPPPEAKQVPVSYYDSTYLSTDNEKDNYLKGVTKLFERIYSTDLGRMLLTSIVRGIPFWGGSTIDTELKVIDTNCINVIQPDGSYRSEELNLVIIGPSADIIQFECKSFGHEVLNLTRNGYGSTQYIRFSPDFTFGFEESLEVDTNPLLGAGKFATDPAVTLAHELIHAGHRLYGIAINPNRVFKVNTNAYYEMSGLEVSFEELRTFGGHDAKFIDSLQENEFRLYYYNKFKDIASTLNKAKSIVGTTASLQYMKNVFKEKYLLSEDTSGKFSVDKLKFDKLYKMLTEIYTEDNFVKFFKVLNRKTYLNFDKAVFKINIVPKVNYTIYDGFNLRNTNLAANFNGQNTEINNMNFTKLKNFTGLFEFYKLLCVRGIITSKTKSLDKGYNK

`Oc1c(C(Nc2cccnc2)c2ccc(C(F)(F)F)cc2)ccc2cccnc12` (racemic) [CB 7967495]: in series [1], the inhibition at 20 µM was 92.7 ± 1.5%. Further, the inhibition at 20 µM in series [2] was 30.2 ± 2.4%. In addition, the “inhibition of SNAP-25 cleavage” value in series [3] is recorded as “near-to-complete inhibition”. For the same molecule, the “effective concentration of inhibitor required for maximum protection” value in series [4] was 5 µM. In addition, in the series with neuroblastoma N2a cells, the “cell toxicity” value was “non-toxic to cells” and the “concentration well-tolerated by the cells” value (from here on “concentration well-tolerated”) is reported as “up to 50 μM”.

Turning to `Oc1c(C(Nc2cccnc2)c2ccccc2F)ccc2cccnc12` (racemic) [CB 7968218], the figures for the inhibition at 20 µM in series [1] and in series [2] were 92.8 ± 0.8% and 16.8 ± 2.2%, respectively. The “protection from SNAP-25 cleavage” value in series [3] is given as 68%. In addition, the “effective concentration of inhibitor required for maximum protection” value in series [4] came to 10 µM. The “cell toxicity” value in the series on neuroblastoma N2a cells is recorded as “non-toxic to cells”. In addition, the “concentration toxic to N2a cells” value in the series with neuroblastoma N2a cells is “above 45 μM”.

As for `CCOc1ccc(C(Nc2cccnc2)c2cc(Cl)c3cccnc3c2O)cc1` (racemic) [CB 7969312], the inhibition at 20 µM in series [1] was found to be 96.2 ± 1.2%; in series [2] it was 31.2 ± 3%. In addition, in series [3], the “inhibition of SNAP-25 cleavage” value is reported as “near-to-complete inhibition”. For the same molecule, the “cell toxicity” value in the series with neuroblastoma N2a cells is “non-toxic to cells”. For the same molecule, in the series on neuroblastoma N2a cells, the “concentration well-tolerated” value is “up to 50 μM”.

With `Oc1c(C(Nc2cccc3cccnc23)c2ccccc2)ccc2cccnc12` (racemic) [NSC 84096], the inhibition at 20 µM in series [1] is 91.9 ± 1.7%. In series [2], the inhibition at 20 µM worked out at 6.9%. Further, the “protection from SNAP-25 cleavage” value in series [3] turned out to be 66%. In series [4], the “Average Time to 50% Loss of Twitch Tension” value was 59.7 ± 4.9^d min and the “effective concentration of inhibitor required for maximum protection” value was 20 µM. Also, in the series on neuroblastoma N2a cells, the “cell toxicity” value is reported as “non-toxic to cells” and the “concentration well-tolerated” value is recorded as “up to 50 μM”.

`Nc1cc(C(Nc2ccccn2)c2ccccc2)c(O)c2ncccc12` (stereo not drawn) [Compound 4874-051A]: at BoNT/A, half-maximal inhibition (IC50) required 2.2 µM and the inhibition at 5 µM is 94%.

Turning to `Cc1ccc2ccc(C(Nc3cccnc3)c3ccccc3)c(O)c2n1` (stereo not drawn) [Compound 5116-047A], at BoNT/A, the inhibition at 5 µM stood at 83%. Further, the IC50 at BoNT/A (read-out: IC50) was found to be 1.4 µM.

`Cc1ccc2ccc(C(Nc3cccnc3)c3ccc(F)cc3)c(O)c2n1` (stereo not drawn) [Compound 5116-048A]: the inhibition at 5 µM on BoNT/A amounted to 87%. The IC50 at BoNT/A (read-out: IC50) came out at 0.8 µM.

Take `Oc1c(C(Nc2cccnc2)c2ccc(F)cc2)ccc2cccnc12` (stereo not drawn) [Compound 5116-050A]: on BoNT/A, half-maximal inhibition (IC50) required 1.2 µM and the inhibition at 5 µM was found to be 86.7%.

With `Oc1c(C(Nc2cccnc2)c2ccc(F)cc2)cc(Cl)c2cccnc12` (stereo not drawn) [Compound 5116-051A], at BoNT/A, the IC50 is less than 1 µM and the inhibition at 5 µM worked out at 91%.

Consider `Oc1c(C(Nc2cccnc2)c2ccccc2F)cc(Cl)c2cccnc12` (stereo not drawn) [Compound 5116-052A], for which, at BoNT/A, the 50% inhibitory concentration (IC50) was less than 1 µM and the inhibition at 5 µM was determined as 97.5%.

On to `O=[N+]([O-])c1ccc(NC(c2ccccc2)c2ccc3cccnc3c2O)cc1` (stereo not drawn) [NSC 1010], for which, in series [2], the “inhibition of BoNT serotype B light chain” value is on record as “failed to inhibit”. Further, in the series with neuroblastoma N2a cells, the “concentration toxic to N2a cells” value was no less than 10 µM.

On to “CRATKML [Ac-CRATKML-NH2, reference compound]”, for which the “Average Time to 50% Loss of Twitch Tension” value in series [4] is 52.70 ± 9.30^c min and 65.0 ± 11.5^c min.
